Results from PubChem BioAssay (NCI).
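Where inhibition never reached the appropriate level, the endpoint shown equals the highest concentration tested. Otherwise, values were interpolated linearly from a five-concentration, 48-hour dose response in 96-well plates. Abbreviation: GI50, concentration required for 50% inhibition of growth. TGI denotes the concentration required for complete inhibition of growth.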

Legend:
Experiment in all cases: growth of human tumour cells (NCI), 48 h
SK-MEL-2 melanoma = test system: SK-MEL-2 melanoma
SF-539 CNS = test system: SF-539 CNS
UACC-257 melanoma = test system: UACC-257 melanoma
NCI-H460 lung = test system: NCI-H460 lung
SK-MEL-5 melanoma = test system: SK-MEL-5 melanoma
NCI-H23 lung = test system: NCI-H23 lung
OVCAR-8 ovarian = test system: OVCAR-8 ovarian
SK-MEL-28 melanoma = test system: SK-MEL-28 melanoma
MDA-MB-435 = test system: MDA-MB-435
HS 578T breast = test system: HS 578T breast

Row | Structure (SMILES) | GI50 (SK-MEL-2 melanoma) [µM] | TGI (SK-MEL-2 melanoma) [µM] | GI50 (SF-539 CNS) [µM] | TGI (SF-539 CNS) [µM] | GI50 (UACC-257 melanoma) [µM] | TGI (UACC-257 melanoma) [µM] | GI50 (NCI-H460 lung) [µM] | TGI (NCI-H460 lung) [µM] | GI50 (SK-MEL-5 melanoma) [µM] | TGI (SK-MEL-5 melanoma) [µM] | GI50 (NCI-H23 lung) [µM] | TGI (NCI-H23 lung) [µM] | GI50 (OVCAR-8 ovarian) [µM] | TGI (OVCAR-8 ovarian) [µM] | GI50 (SK-MEL-28 melanoma) [µM] | TGI (SK-MEL-28 melanoma) [µM] | GI50 (MDA-MB-435) [µM] | TGI (MDA-MB-435) [µM] | GI50 (HS 578T breast) [µM] | TGI (HS 578T breast) [µM]
1 | N#Cc1nc(-c2ccc(F)cc2)oc1S(=O)(=O)N1CCCCC1 | 2.03 | 4.92 | 1.73 | 3.12 | 1.98 | 4.58 | 4.77 | 19.6 | 1.81 | 3.36 | 2.14 | 4.92 | 3.19 | 24.1 | 1.75 | 3.28 | 1.82 | 3.75 | 2.24 | 5.74
2 | C=CC(=O)N1CCC(c2ccc(C(N)=O)c(-c3ccc(Oc4ccccc4)cc3)n2)CC1 | 27.1 | > 100 | 40.3 | > 100 | 27.9 | > 100 | 46.2 | > 100 | 20.6 | 41.9 | 34.6 | > 100 | 30.9 | > 100 | 51.5 | > 100 | 29.1 | > 100 | 37.2 | > 100
3 | Nc1ccn(C2CC(F)C(CO)O2)c(=O)n1 (stereo not drawn) | > 100 | > 100 | > 100 | > 100 | > 100 | > 100 | > 100 | > 100 | > 100 | > 100 | > 100 | > 100 | > 100 | > 100 | > 100 | > 100 | > 100 | > 100 | > 100 | > 100
4 | CCOC(=O)N1C/C(=C\c2ccccc2)C(=O)/C(=C/c2ccccc2)C1 |  | 28.2 |  | 11 |  | 12.5 |  | 42.4 |  | 6.2 |  | 11.4 |  | 9.51 |  | 6.69 |  | 5.8 |  | 15.3
5 | CCCCCCCCCCCC1=NC(C)(C)CN1C(C)(C)CO | 2.12 | 3.88 | 1.85 | 3.51 | 1.65 | 3.28 | 1.55 | 2.91 | 1.79 | 3.3 | 2.11 | 4.67 | 3.33 | 13.4 | 1.83 | 3.41 | 1.73 | 3.5 | 1.45 | 3.48
6 | OC1(c2ccccc2)C2CC=CC2C1(c1ccccc1)c1ccccc1 (stereo not drawn) |  | 27.5 |  | > 100 |  | 81.4 |  | > 100 |  | 36.2 |  | > 100 |  | > 100 |  | > 100 |  | 62.1 |  | > 100
7 | CN(C)Cc1ccc(-c2cc3onc(-c4ccccc4)c3c(=O)n2C)cc1 |  | 78.8 |  | 46.8 |  | 35.6 |  | 32.3 |  | 47.1 |  | > 100 |  | > 100 |  | 41.2 |  | 59.8 |  | 46.2
8 | CN1C(=O)c2ccc3ccccc3c2C1=O |  | > 100 |  | > 100 |  | > 100 |  | > 100 |  | > 100 |  | > 100 |  | > 100 |  | > 100 |  | > 100 |  | > 100
9 | C=C1C(=O)O[C@H]2[C@H]1CC/C(COC(=O)CCCCCC(=O)OC/C1=C/CC[C@@]3(C)O[C@H]3[C@H]3OC(=O)C(=C)[C@@H]3CC1)=C\CC[C@@]1(C)O[C@@H]21 | 5.17 | 21.2 | 1.67 | 3.58 | 1.93 | 5.63 | 3.21 | 12.2 | 1.91 | 4.37 | 2.72 | 9.98 | 2.65 | 9.71 | 2.45 | 6.84 | 2.58 | 8.92 | 2.72 | 22
10 | O=[N+]([O-])c1cccc(/C=N/NC2=CS(=O)(=O)C=C2)c1 |  | > 100 |  | > 100 |  | > 100 |  | > 100 |  | > 100 |  | > 100 |  | > 100 |  | > 100 |  | > 100 |  | > 100
11 | O=C(CCN1CCCC1)Nc1ccc2c(NCc3ccccc3)c3ccccc3nc2c1 | 0.598 | 2.08 | 0.422 | 1.58 | 1.45 | 3.3 | 0.313 | 1.07 | 1.31 | 2.61 | 0.392 | 1.57 | 0.452 | 2.84 | 1.17 | 2.49 | 0.481 | 1.69 | 0.612 | 2.75
12 | COc1ccc([C@H](CC(=O)O)N2CCN(CCCc3ccc4c(n3)NCCC4)C2=O)cn1 | 0.0331 | 0.237 | > 100 | > 100 |  | > 100 | 4.36 | > 100 | 0.0501 | 0.173 | 0.892 | 4.07 | 0.277 | > 40 | > 28.7 | > 100 | 0.0216 | 0.0602 | 7.15 | > 100
13 | C#C[C@]1(O)CC[C@H]2[C@@H]3CC=C4c5sc(Nc6cc(F)ccc6F)nc5CC[C@]4(C)[C@H]3CC[C@@]21C | 1.59 | 4.14 | 0.389 | 1.74 | 1.83 | 4.31 | 1.95 | 4.14 | 1.74 | 3.16 | 1.78 | 4.38 | 2.63 | 12.1 | 1.09 | 2.34 | 2.07 | 4.61 | 0.424 | 7.13
14 | COc1ccc(C(=O)Cn2c(C(=O)c3ccccc3)nc3ccccc32)cc1 |  | > 100 | 3.03 | > 100 | > 100 | > 100 | 3.39 | > 100 | 2.06 | 6.06 | 5.08 | > 100 | 10.2 | > 100 | 3.91 | > 100 | 0.304 | 1.87 | 2.81 | > 100
15 | C[C@H]1[C@H](C)N1CC(O)Cn1ccnc1[N+](=O)[O-] (stereo partly drawn) |  | > 100 |  | > 100 |  | > 100 |  | > 100 |  | > 100 |  | > 100 |  | > 100 |  | > 100 |  | > 100 |  | > 100
16 | NC(=N\N=C/c1ccc(O)cc1)/C(N)=N\N=C/c1ccc(O)cc1 | > 79 | > 100 | 3.99 | > 100 | > 100 | > 100 | 13.8 | > 100 | 3.06 | 73.1 | > 100 | > 100 | 51.4 | > 100 | > 100 | > 100 | 4.88 | > 100 | > 68.9 | > 100
17 | O=C1CCc2c(sc3[nH]c(=S)n(-c4cc(C(F)(F)F)cc(C(F)(F)F)c4)c(=O)c23)C1 | 0.721 | 3.74 | 0.362 | 1.7 | 0.725 | 4.6 | 0.353 | 2.03 | 0.217 | 0.465 | 0.346 | 2.24 | 0.457 | > 37.8 | 0.459 | 3.7 | 1.22 | 5.45 | 0.339 | 16.4
